Data published in US20160289663A1, “NOVEL CHIMERIC GENE ATF7IP-PDGFRB OF ACUTE LYMPHOBLASTIC LEUKEMIA” (priority 2013, published 2016).
Structures can show the parent of a compound that is named as a salt.

Legend:
[1] = test system: phosphorylation of MAP kinases/AKT and PDGFRB in ATF7IP-PDGFRB-expressing Ba/F3 cells; assay: Immunoblot of MAP kinase/AKT/PDGFRB phosphorylation in ATF7IP-PDGFRB Ba/F3 cells; format: cell-based, mouse; details: immunoblotting, FIG. 11
Protocol: Cell lysates were prepared from the same sample preparations as in FIG. 10. Immunoblot analysis was performed in the same way as in FIG. 8. Abbreviations: None, without inhibitor; LY, with LY294002; and PD, with PD98059.
Immunoblot analysis was performed as in FIG. 8.
Immunoblot analysis was performed as described previously (Kiyokawa, et al., J Biol Chem, 1997, 272, 18656-18665; Tomita, et al., Leukemia Research, 2014, 38, 361-370) using the following antibodies: anti-phosphotyrosine (4G10; Merck Millipore), anti-PDGF receptor β (28E1), anti-phospho-PDGF receptor β Tyr751 (C63G6), anti-phospho-PDGF receptor β Tyr 771 (76D6), anti-phospho-PDGF receptor β Tyr1009 (42F9), anti-phospho-PDGF receptor β Tyr1021 (6F10), anti-phospho-p44/42 MAPK (ERK1/2, Tyr202/Tyr204), anti-phospho-p38 MAPK (Thr180/Tyr182), anti-phospho-JNK (Thr183/Tyr185, 81E11), anti-phospho-AKT (Ser473), anti-phospho-PLCγ1 (Tyr783), anti-Casitas B-lineage lymphoma binding (Cbl), anti-p38 MAPK antibody and anti-JNK antibody (Cell Signaling Technology); anti-ATF7IP (MCAF1) (Abcam, Cambridge, UK); anti-ERK, anti-PLCγ, (BD Biosciences, San Jose, Calif., USA); anti-β-actin (Sigma-Aldrich, St. Louis, Mo.); and horseradish peroxidase (HRP)-conjugated secondary antibody (Dako, Glostrup, Denmark). […]

[2] = test system: Mock Ba/F3 cells; assay: Cell proliferation (WST) assay, Mock Ba/F3 cells with WEHI-3-conditioned medium; format: cell-based, mouse; details: 24 hours, presence of conditioned medium, FIG. 10A
Protocol: The data were analyzed by F-test. P values less than 0.05 were considered significant.

[3] = test system: ATF7IP-PDGFRB-expressing Ba/F3 cells; assay: Cell proliferation (WST) assay, ATF7IP-PDGFRB Ba/F3 transfectants without conditioned medium; details: for effect on viable cell number: next-generation TKIs, FIG. 13
Protocol: (A) ATF7IP-PDGFRB-expressing Ba/F3 cells in the absence of WEHI-3-conditioned medium (CM) and Mock Ba/F3 cells in the presence of CM were each treated with or without either the PI3 kinase inhibitor LY294002 or the MEK inhibitor PD98059 at the indicated concentrations for 24 hours. Subsequently, the number of living cells was estimated for each type of the cells by WST assay in the same way as in FIG. 5B. The ratio of the OD value obtained from the inhibitor-treated cells relative to that obtained from the inhibitor-untreated cells was calculated and expressed as the means±SEM of triplicates. (B) ATF7IP-PDGFRB-expressing Ba/F3 cells were treated with PD98059 in the presence or absence of CM, and examined in the same way as in (A). […]
The data were analyzed by F-test. P values less than 0.05 were considered significant. All experiments were performed at least three times to calculate means and SEM values.

[4] = test system: recurrent Ph-like acute lymphoblastic leukemia bearing ATF7IP/PDGFRB translocation; assay: Dasatinib monotherapy case report, MRD monitored by leukemia-specific genomic PCR; format: in vivo, human; details: one patient, 66 mg/m^2/day
Protocol: (A) The therapeutic response was evaluated by fluorescence in situ hybridization (FISH), RT-PCR (Kobayashi K., et al., Br J Haematol, 2014, 165, 836-841), and genomic PCR.
This example describes a monotherapy with the tyrosine kinase inhibitor (TKI) dasatinib in a patient with recurrent Ph-like acute lymphoblastic leukemia bearing ATF7IP/PDGFRB translocation.

[5] = test system: myeloid malignancies bearing PDGFRB fusion genes; details: without secondary resistance; Cheah et al., Blood 2014; cited from earlier work
[6] = Mus musculus, BaF3, 48 h, read-out: viable cell number

In the case of `COc1cccc(-c2cc(=O)c3ccccc3o2)c1N` [PD98059], the “phosphorylation of MAP kinase” value [1] is reported as “markedly reduced”, the cell death [2] is reported as “not in the Mock-expressing Ba/F3 cells” and the cell death ([3]; 24 hours, absence of conditioned medium, FIG. 10A) is reported as “induced cell death”. The “MEK inhibitor-induced cell death with simultaneous conditioned medium containing IL3” value ([3]; presence of conditioned medium, FIG. 10B) was “partially avoided”.

In the case of `Cc1nc(Nc2ncc(C(=O)Nc3c(C)cccc3Cl)s2)cc(N2CCN(CCO)CC2)n1` [dasatinib], the “duration of complete molecular remission” value [4] is reported as at least 12 months, the “time to disappearance of MRD” value ([4]; leukemia-specific genomic PCR) is reported as at most 3 months and the viability at 0.0025 µM [3, 6] is reported as under 10%.

In the case of `Cc1ccc(NC(=O)c2ccc(CN3CCN(C)CC3)cc2)cc1Nc1nccc(-c2cccnc2)n1` [imatinib mesylate], the “10-year overall survival rate” value [5] is listed as 90%.

For `Cc1ccc(NC(=O)c2ccc(CN3CCN(C)CC3)cc2)cc1Nc1nccc(-c2cccnc2)n1` [imatinib], the cell proliferation ([3]; IL-3-independent proliferation, exposure to TKI) was “significantly inhibited in a concentration-dependent manner” and the viability at 0.025 µM [3, 6] was under 10%.

For `Cc1cn(-c2cc(NC(=O)c3ccc(C)c(Nc4nccc(-c5cccnc5)n4)c3)cc(C(F)(F)F)c2)cn1` [nilotinib], the “effect on viable cell number” value [3] was “effectively reduced the viable cell number”.

For `CNC(=O)c1cc(Oc2ccc(NC(=O)Nc3cc(C(C)(C)C)nn3-c3ccc4ncccc4c3)c(F)c2)ccn1` [rebastinib], the “effect on viable cell number” value [3] was “effectively reduced the viable cell number”.
